The values that follow are results of earlier work, collected in patent publication US12011496B2, “Topical macqui berry formulation” (Tracie Martyn International, Inc., priority 2005, dated 2024).

Molecules are shown by their SMILES.

For data set [1] the following is noted: using only natural ingredients (botanicals, antioxidants, coffe oil and microfine zinc oxide).
For data set [2] the following is noted: animal studies.
For data set [3] the following is noted: antioxidant properties.

For the compound `COc1ccc(C=CC(=O)OCCC(C)C)cc1` [isoamyl-p-methoxycinnamate], the spf entry in data set [1] is “greater than 30”.

For `C=CCc1cc(OC)c2c(c1)OCO2` [myristicin, 3-methoxy,4,5-methylendioxy-allylbenzene], the oral psychotropic dose is given as 400 mg.

Regarding `NCCC(=O)N[C@@H](Cc1cnc[nH]1)C(=O)O` [Carnosine, β-alanyl-L-histidine], the “safety at dosages above 500 mg/kg body weight” value in data set [2] was “safe”. By IC50 is commonly meant the midpoint of a concentration-inhibition curve. As for `O=C(/C=C/c1ccc(O)c(O)c1)O[C@H](Cc1ccc(O)c(O)c1)C(=O)O` [Rosmarinic acid], in data set [3], the concentration for half-maximal inhibition (IC50) is 740 nM.
